System: Staphylococcus aureus
Assay: Antibacterial activity against methicillin-resistant Staphylococcus aureus ATCC 43300 after 12 hrs by Broth microdilution method
Type: functional, organism-based
Settings: ATCC 43300, 12 h

Row | Compound | IC50 [nM]
1 | Oc1c(Br)cc(Br)cc1-c1cc(Br)cc(Br)c1O [BROMOPHENE] | 2140
2 | CN[C@H](CC(C)C)C(=O)N[C@H]1C(=O)N[C@@H](CC(N)=O)C(=O)N[C@H]2C(=O)N[C@H]3C(=O)N[C@H](C(=O)N[C@H](C(=O)O)c4cc(O)cc(O)c4-c4cc3ccc4O)[C@H](O)c3ccc(c(Cl)c3)Oc3cc2cc(c3O[C@@H]2O[C@H](CO)[C@@H](O)[C@H](O)[C@H]2O[C@H]2C[C@](C)(N)[C@H](O)[C@H](C)O2)Oc2ccc(cc2Cl)[C@H]1O [VANCOMYCIN] | 910
3 | Oc1c(Br)cc(Br)cc1-c1[nH]c(Br)c(Br)c1Br [PENTABROMOPSEUDILIN] | 100
4 | Brc1cc(Br)c2oc3c(Br)c(Br)[nH]c3c2c1 | 1930
5 | Oc1ccc(Br)cc1-c1cc(Br)cc(Br)c1O | 2190

Source: ChEMBL document CHEMBL1641395, “Highly brominated antimicrobial metabolites from a marine Pseudoalteromonas sp” (J Nat Prod, 2010)
